Experiments:
tumors expressing IDO = details: mice with IDO-transfected tumors; cited from earlier work
IDO mRNA = IDO mRNA expression by quantitative RT-PCR in monocyte-derived DCs; format: cell-based, human; details: for effect on IDO mRNA levels induced by PGE2 or forskolin plus TNFα: inhibitor present during 48 hrs culture
Protocol: Isolation and preparation of cells. Peripheral blood mononuclear cells (PBMCs), DCs and T cells were prepared as described. Briefly, buffy coats were obtained from normal donors (EFS, Rungis) and PBMCs were isolated by sedimentation over Ficoll-Hypaque (Pharmacia Biotech, Piscataway, N.J.). CD 14-enriched and CD-14-depleted fractions were prepared by the use of CD14 Miltenyi microbeads followed by magnetic cell sorting according to the manufacturers' instruction (Miltenyi Biotech, Auburn, Calif.). Immature DCs were prepared by the use of CD14+ fraction by culturing cells in the presence of GM-CSF (Berlix, Seattle, Wash.) and IL-4 (R&D Systems, Minneapolis, Minn.) for 7 days. GM-CSF (1000 U/ml) and IL-4 (500 U/ml) were added to the cultures on days 0, 2, and 4. To generate mature DCs, the cultures were transferred to fresh wells on days 6-7 and the indicated maturation stimulus was added for an additional 1-2 days. At days 6-7, >95% of the cells were CD13^−CD83^−HLA-r^lo DCs. After maturation, on days 8-9, 70-95% of the cells were of the mature […] phenotype. CD4+ and CD8+ T cells were purified from the CD14− fraction to >99% purity by positive selection with the MACS column purification system.
Quantitative analysis of IDO mRNA expression. IDO mRNA detection by real-time PCR. Briefly, RNA was extracted by Tri-reagent (Sigma) and cDNA was synthesized from 1-2 μg RNA using oligo dT (Roche) and Superscript reverse transcriptase (Invitrogen) according to manufacturers' instructions. IDO specific mRNA is quantified relative to GAPDH or TBP (TATA box Binding Protein) using the following primers: IDO forward: 5′[…]-3′ (SEQ ID NO:1), IDO reverse: 5′-[…]-3′ (SEQ ID NO:2), GAPDH forward: 5′[…]-3′ (SEQ ID NO:3), GAPDH reverse: 5′-[…]-3′ (SEQ ID NO:4) TBP forward: 5′-[…]-3′ (SEQ ID NO: 5); TBP reverse: 5′-[…]-3′ (SEQ ID NO: 6),Primers for EP receptors are described in Kamphuis et al. Invest Ophthalmol Vis Sci. 42, 3209-3215 (2001). Quantitative RT-PCR was performed using the SYBR® Green JumpStart™ Taq ReadyMix™ (Sigma) according to manufacturer's instructions. The reactions were run on a PTC200 equipped with a Chromo4™ detector (MJ Research, Mass., USA). […] The ratio gene of interest/housekeeping genes was calculated according to the formula: ratio=2^−dCt (dCT=mean Ct gene−mean Ct housekeeping). […]
Based on IDO's proposed role in immune tolerance, the present inventors evaluated the effect of different DC maturation stimuli on IDO expression. […] The present inventors first established assays to monitor IDO mRNA expression using realtime quantitative RT-PCR (qPCR), and Western blot. RNA was extracted from immature DCs (iDC) exposed to distinct maturation stimuli and IDO expression was quantified as described in the Materials and Methods.

IDO = IDO enzymatic activity, kynurenine by colorimetric assay (Ehrlich's reagent), in monocyte-derived DCs; format: cell-based, human
Protocol: Determination of IDO enzymatic activity and Kynurenine assays. Tryptophan is catabolized by IDO to N-formylkynrenine, which is rapidly converted to kynurenine. Measurement of kynurenine levels is a surrogate marker for IDO activity.
Except where stated, cells were incubated for an additional 4 hours, followed by harvest of supernatant and quantitation of kynurenine by HPLC or using a colormetric assay.
Alternatively, kynurenine concentrations in the culture supernatants were measured using a colormetric assay (i.e., spectrophotometrically). 50 μl of 30% trichloroacetic acid was added to 100 μl of the culture supernatant, vortexed, and then centrifuged at 10,000 rpm for 5 minutes. A 75 μl volume of the supernatant was added to 75 μl of Ehrlich's reagent (100 mg of […], 5 ml of glacial acetic acid) in a microtiter plate well (96-well format). Optical density was measured at 480 nm filter with a Multiskan MS (Labsystems) microplate reader. The values were referred to a standard curve of defined kynurenine concentrations ([…]).
To validate this approach, the present inventors established a standard curve for quantifying kynurenine and compared the experimental values obtained using the calorimetric assay with those from the HPLC analysis.

EP2 = EP2 mRNA expression in DCs by quantitative RT-PCR; format: cell-based, human; details: relative to TBP
Protocol: (A) The present inventors monitored EP2 and EP4 mRNA expression in DCs exposed to TNFα, PGE2 or a combination of both stimuli. TBP was used as a reference for our qPCR studies as its expression levels matched that of the EP-Rs. White bars represent EP2 levels; black bars indicated EP4 expression. […] All were used at a concentration of 50 μM.
Briefly, RNA was extracted by Tri-reagent (Sigma) and cDNA was synthesized from 1-2 μg RNA using oligo dT (Roche) and Superscript reverse transcriptase (Invitrogen) according to manufacturers' instructions. […] Quantitative RT-PCR was performed using the SYBR® Green JumpStart™ Taq ReadyMix™ (Sigma) according to manufacturer's instructions. The reactions were run on a PTC200 equipped with a Chromo4™ detector (MJ Research, Mass., USA). […] All the measures were performed in duplicates and validated when the difference in Ct between the 2 measures was less than 0.3. […] The ratio gene of interest/housekeeping genes was calculated according to the formula: ratio=2^−dCt (dCT=mean Ct gene−mean Ct housekeeping). GAPDH and TBP were used to normalize for IDO and EP-receptor mRNA expression, respectively.

[1] = target: human prostanoid receptors; details: four receptors (EP1-4) binding PGE2 with high affinity; cited from earlier work

## Cn1cc(C[C@@H](N)C(=O)O)c2ccccc21 [1-MT, 1-Methyl-D-tryptophan]
Tumors expressing IDO
  protective tumor immunity: recovered the ability to establish protective immunity

## O=S(=O)(NCCNC/C=C/c1ccc(Br)cc1)c1cccc2cnccc12 [H-89]
IDO mRNA
  effect on IDO mRNA levels induced by PGE2 or forskolin plus TNFα: block IDO expression

## CCCCC[C@H](O)/C=C/[C@H]1[C@H](O)CC(=O)[C@@H]1C/C=C\CCCC(=O)O [PGE2, prostaglandin E2]
IDO mRNA; PGE2 treated DCs vs iDCs
  increase in transcription of IDO: 50-200 fold
IDO; DCs treated with the stimulus alone
  IDO activity (kynurenine, colorimetric), stimulus alone: lacked measurable IDO activity
EP2
  EP2 mRNA expression: down-regulation of EP2
[1]
  Kd: low nM range

## Nc1ncnc2c1ncn2C1CCCO1 (centres unmarked) [SQ22536]
IDO mRNA
  effect on IDO mRNA levels induced by PGE2 or forskolin plus TNFα: block IDO expression
IDO; inhibitor added during 48 hrs maturation
  effect on IDO activity of PGE2/forskolin +/- TNFα matured DC: blocks IDO expression/activity
IDO; titrated
  optimal inhibitor concentration against forskolin-induced IDO: 1 mM

## CCCC1([C@H](O)C/C=C/[C@H]2[C@H](O)CC(=O)[C@@H]2CCCCCCC(=O)OC)CCC1 [butaprost, Butaprost]
IDO; iDCs treated in combination with TNFα, 48 hrs
  IDO activity in the presence of TNFα (PGE2 replaced): resulted in the induction of IDO activity

## TNFα
IDO mRNA; iDCs exposed to the stimulus
  IDO mRNA expression (in words): did not upregulate IDO expression

Source: patent US20060110371A1, “Control of indoleamine 2,3 deoxygenase expression and activity” (INSTITUT PASTEUR, priority 2004, published 2006)
